{"source": "patent US20060089407A1", "about": "“Methods for Making and Using Synergistic Multifunctional Compositions” (NATIONAL RESEARCH LABORATORIES, LTD., priority 2004, published 2006)", "key": {"viruses": {"system": "viruses", "conditions": "cited from earlier work"}, "normal cells": {"system": "normal cells", "conditions": "cited from earlier work"}}}
{"smiles": "O=C([O-])CC([O-])(CC(=O)[O-])C(=O)[O-].[Cu+2].[Na+].[Na+]", "note": "[MCC, disodium monocopper (II) citrate dihydrate]", "values": [{"measurement": "anti-inflammatory performance", "setting": "inflammatory processes", "value": "demonstrated utility on relieving inflammatory processes"}]}
{"smiles": "CC(=O)[O-].CC(=O)[O-].[Zn+2]", "note": "[zinc acetate]", "values": [{"measurement": "anti-viral activity", "setting": "viruses", "value": "very toxic to viruses"}, {"measurement": "toxicity to normal cells", "setting": "normal cells", "value": "quite toxic to normal cells"}]}
